Assay [1] relates to TF pre-mRNA splicing in platelets. The assay is described as follows: TF pre-mRNA splicing in platelets (PCR). It is filed as cell-based, human. The conditions noted are these: for pre-mRNA splicing events in platelets: commonly used medications in patients. An excerpt: TF pre-mRNA splicing may be measured by any method known in the art, including, but not limited to, PCR using primers that target sequences in exon four (5′-[…]-3′; SEQ ID NO: 1) and five (5′-[…]-3′; SEQ ID NO: 2), and thus span intron four^3. Likewise, detection of full-length mature mRNA for human TF (mHTF) in platelets may be measured using any method known in the art, including, but not limited to, using primers targeting sequences in exon one (5′-[…]-3′; SEQ ID NO: 3) and exon six (5′-[…]-3′; SEQ ID NO: 4). In light of the disclosure herein, a person of ordinary skill in the art may select and use alternative primers based on the sequence of the gene/RNA^54. Primer design may be aided by the use of available computer programs, such as OLIGO™ (available from Hitachi Software), Primer3 (available online from the University of Massachusetts Medical School), GeneFisher (available online from the Universitat Bielefeld, Germany), or OligoAnalyzer (available from Integrated DNA Technologies, Inc.).
Platelets were isolated from each patient within 48 hours of admission to the ICU and TF mRNA expression patterns were characterized in each patient. In addition, clinical data for each patient including age and gender, admission diagnoses, APACHE II score, laboratory and microbiology results, and mortality were also collected. When feasible, platelets were also isolated from blood that was obtained on days three, five, and ten. The blood samples were processed immediately. Pre-mRNA splicing was also evaluated in platelets isolated from healthy volunteers (age 18-50) that were not taking medications. Platelets isolated from patients with sepsis and routine healthy control donors were processed in parallel.
Platelets from healthy subjects were left quiescent or activated with α-toxin (10 ng/ml; List Biological Laboratories Inc.) or lipopolysaccharide (LPS; 100 ng/ml; Sigma), toxins produced by gram-positive Staph. aureus and gram-negative E. Coli, respectively. Platelets were kept quiescent or activated in suspension with MRSA or E. coli at a bacteria to platelet ratio of 1:10. The bacteria were obtained from blood cultures from sepsis patients by ARUP, a national reference laboratory under standard conditions. For these studies, the bacteria were swiped from the culture plate, re-suspended, and the desired concentration was adjusted against a standard solution using a colorimeter (Vitek Colorimeter, bioMéreux, Inc.).

A further assay relates to PKA. The following applies: concentrations up to 1 μM; cited from earlier work.
Another assay relates to PKC. The following applies: concentrations up to 1 μM; cited from earlier work.
For a further assay, the target named is SRPK1 (Homo sapiens, UniProt Q96SB4). The conditions noted are these: concentrations up to 1 μM; cited from earlier work.
SRPK1, sequence (Q96SB4 whole entry, species assumed): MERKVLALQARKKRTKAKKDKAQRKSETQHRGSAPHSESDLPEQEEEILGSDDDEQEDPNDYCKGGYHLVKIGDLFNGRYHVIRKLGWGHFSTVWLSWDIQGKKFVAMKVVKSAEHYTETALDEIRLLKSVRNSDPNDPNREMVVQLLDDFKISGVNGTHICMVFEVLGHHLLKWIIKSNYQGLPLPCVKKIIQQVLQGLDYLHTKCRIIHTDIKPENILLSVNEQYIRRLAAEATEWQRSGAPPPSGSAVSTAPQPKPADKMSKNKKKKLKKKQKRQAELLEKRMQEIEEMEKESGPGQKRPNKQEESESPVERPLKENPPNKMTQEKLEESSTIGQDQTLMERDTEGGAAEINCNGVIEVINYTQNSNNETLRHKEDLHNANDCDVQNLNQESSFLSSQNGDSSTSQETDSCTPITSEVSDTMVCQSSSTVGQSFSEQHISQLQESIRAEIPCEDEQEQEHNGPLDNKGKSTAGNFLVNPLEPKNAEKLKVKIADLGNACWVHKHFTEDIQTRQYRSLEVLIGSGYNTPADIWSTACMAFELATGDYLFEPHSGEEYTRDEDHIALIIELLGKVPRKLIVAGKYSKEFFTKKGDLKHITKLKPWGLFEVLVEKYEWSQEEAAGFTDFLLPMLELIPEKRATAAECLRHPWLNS
In assay [2] the test system is platelets. The assay is described as follows: Plasma clot formation by activated platelets or their membranes. The conditions noted are these: platelets activated with thrombin for 2 hours, FIG. 5. Type of assay: cell-based, human.
Another assay has as its target SRPK2 (Homo sapiens, UniProt P78362). The conditions noted are these: concentrations up to 1 μM; cited from earlier work.
The test system of assay [3] is platelets. The conditions noted are these: cited from earlier work.

SRPK2, sequence (P78362 whole entry, species assumed): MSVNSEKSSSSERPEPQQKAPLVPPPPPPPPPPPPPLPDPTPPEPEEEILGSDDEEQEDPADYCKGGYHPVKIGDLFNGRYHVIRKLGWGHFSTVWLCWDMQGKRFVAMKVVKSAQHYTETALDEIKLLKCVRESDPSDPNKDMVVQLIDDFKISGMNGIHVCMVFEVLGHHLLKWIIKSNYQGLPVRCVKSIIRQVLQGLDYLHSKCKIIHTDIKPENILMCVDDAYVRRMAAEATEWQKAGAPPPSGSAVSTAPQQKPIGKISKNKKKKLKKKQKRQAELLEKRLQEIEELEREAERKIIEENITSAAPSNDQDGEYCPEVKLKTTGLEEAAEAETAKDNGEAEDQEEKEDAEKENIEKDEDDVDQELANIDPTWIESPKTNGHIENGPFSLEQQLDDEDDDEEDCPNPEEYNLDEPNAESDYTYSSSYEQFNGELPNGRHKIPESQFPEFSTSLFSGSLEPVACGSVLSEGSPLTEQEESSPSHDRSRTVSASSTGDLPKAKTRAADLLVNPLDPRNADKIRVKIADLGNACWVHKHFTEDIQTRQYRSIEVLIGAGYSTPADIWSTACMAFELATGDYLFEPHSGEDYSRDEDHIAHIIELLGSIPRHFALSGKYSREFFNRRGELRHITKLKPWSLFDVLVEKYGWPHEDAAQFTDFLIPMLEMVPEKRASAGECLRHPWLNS

For `CC(=O)Oc1ccccc1C(=O)O` [Aspirin], in assay [1], the “pre-mRNA splicing events in platelets” value was “do not affect”. Further, the “signal-dependent TF pre-mRNA splicing” value in assay [1] (platelets of elderly subject taking aspirin 325 mg daily, thrombin 0.05 U/ml for 1 hour, FIG. 2) is “does not block”.
Take `CCN1/C(=C/C(C)=O)Sc2ccc(OC)cc21` [Tg003, (Z)-1-(3-Ethyl-5-methoxy-2,3-dihydrobenzothiazol-2-ylidene)propan-2-one]: in the assay with PKA, the “effect on PKA activity” value was “does not affect”. For the same molecule, the “effect on PKC activity” value in the assay with PKC is “does not affect”. Further, the “effect on SRPK1 activity” value on SRPK1 is “does not affect”. Besides, the pre-mRNA splicing entry in assay [1] (platelets activated with thrombin, FIG. 5) is “blocks pre-mRNA splicing”. For the same molecule, the plasma clot formation result in the assay on platelets [2] is reported as “reduces clot formation”. For the same molecule, at SRPK2, the “effect on SRPK2 activity” value is reported as “does not affect”. Also, the “platelet adhesion, spreading, and aggregation” value with platelets [3] was “does not alter”.
As to `CC(=O)CC(c1ccccc1)c1c(O)c2ccccc2oc1=O` (stereo not drawn) [warfarin], the “pre-mRNA splicing events in platelets” value in assay [1] was “do not affect”.
Consider heparin, for which the “TF pre-mRNA splicing” value in assay [1] (platelets of septic patients who received heparin to prevent VTE) is “does not block”.
For the molecule lipopolysaccharide [LPS], in assay [1] (platelets from healthy volunteers, 2 hours, FIGS. 11 and 12), the “induction of TF pre-mRNA splicing” value is “induced TF pre-mRNA splicing”.

These data come from US20140099634A1, “USE OF PRE-MRNA SPLICING IN PLATELET CELLS FOR THE DIAGNOSIS OF DISEASE” (priority 2007, published 2014).
